Assay results from patent US9216999B2, “Substituted pyrrolo[2,3-h][1,6]naphthyridines and compositions thereof as JAK inhibitors” (priority 2011, dated 2015).

What was measured:
JAK3 = JAK3 (Homo sapiens (Human), UniProt P52333); assay: JAK3 enzyme assay (Assay Example^b 1)
JAK1 = JAK1 (Homo sapiens (Human), UniProt P23458); assay: JAK1 enzyme assay (Assay Example^b 1)
[1] = IC50 (μM) JAK3, Table^b 78, ATP 100 μM
[2] = IC50 (μM) JAK1, Table^b 78, ATP 100 μM
[3] = IC50 (μM) JAK1, Table^b 80, ATP 100 μM
[4] = IC50 (μM) JAK3, Table^b 80, ATP 100 μM

JAK3, sequence (P52333 whole entry): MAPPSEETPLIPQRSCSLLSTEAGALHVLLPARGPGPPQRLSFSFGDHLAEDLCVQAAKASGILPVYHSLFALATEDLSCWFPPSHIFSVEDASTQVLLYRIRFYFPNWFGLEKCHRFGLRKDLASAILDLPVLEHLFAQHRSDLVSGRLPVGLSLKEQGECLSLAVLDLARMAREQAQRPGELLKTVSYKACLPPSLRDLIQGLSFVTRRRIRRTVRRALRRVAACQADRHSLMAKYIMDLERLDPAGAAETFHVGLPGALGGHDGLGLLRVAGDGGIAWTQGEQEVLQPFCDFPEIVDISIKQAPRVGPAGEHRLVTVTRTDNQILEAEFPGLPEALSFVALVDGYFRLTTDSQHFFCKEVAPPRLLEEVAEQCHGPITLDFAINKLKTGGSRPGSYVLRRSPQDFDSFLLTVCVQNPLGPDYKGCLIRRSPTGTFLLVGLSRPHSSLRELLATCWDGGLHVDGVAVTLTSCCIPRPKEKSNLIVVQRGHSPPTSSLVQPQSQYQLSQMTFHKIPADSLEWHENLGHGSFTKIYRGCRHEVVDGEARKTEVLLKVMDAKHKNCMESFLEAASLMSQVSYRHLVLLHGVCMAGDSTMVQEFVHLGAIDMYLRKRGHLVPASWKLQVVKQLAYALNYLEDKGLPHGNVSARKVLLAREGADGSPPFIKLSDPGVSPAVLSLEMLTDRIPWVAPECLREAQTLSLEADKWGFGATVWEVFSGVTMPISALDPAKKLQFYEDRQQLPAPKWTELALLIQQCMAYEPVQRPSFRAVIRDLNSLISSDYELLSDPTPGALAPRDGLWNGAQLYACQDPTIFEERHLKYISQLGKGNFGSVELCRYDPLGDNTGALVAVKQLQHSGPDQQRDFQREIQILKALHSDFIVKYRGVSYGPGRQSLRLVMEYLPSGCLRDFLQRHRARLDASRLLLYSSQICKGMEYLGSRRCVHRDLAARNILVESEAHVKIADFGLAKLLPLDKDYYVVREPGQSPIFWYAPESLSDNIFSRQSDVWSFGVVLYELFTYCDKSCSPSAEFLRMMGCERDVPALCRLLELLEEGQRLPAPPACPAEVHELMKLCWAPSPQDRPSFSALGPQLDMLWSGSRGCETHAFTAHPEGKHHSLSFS

SMILES | IC50 (JAK3; [4]) [µM] | further results
C[C@@H]1CCN(C(=O)CC#N)C[C@@H]1N1COCc2cnc3[nH]ccc3c21 (racemic) [compound 16] |  | IC50 (JAK3; [1]): 0.11 µM; IC50 (JAK1; [2]): 0.038 µM
Cc1cn([C@H]2CN(Cc3ccccc3)CC[C@H]2C)c2c(cnc3[nH]ccc32)c1=O (racemic) [compound 23] |  | IC50 (JAK1; [3]): 0.035 µM
C[C@@H]1CCN(S(=O)(=O)c2ccccc2C#N)C[C@@H]1n1ccc(=O)c2cnc3[nH]ccc3c21 (racemic) [compound 25] | 0.07 | 
C[C@@H]1CCN(C(=O)c2ccccc2C(F)(F)F)C[C@@H]1n1ccc(=O)c2cnc3[nH]ccc3c21 (racemic) [compound 30] | > 1 | 
C[C@@H]1CCN(C(=O)c2cccc(C(F)(F)F)c2)C[C@@H]1n1ccc(=O)c2cnc3[nH]ccc3c21 (racemic) [compound 31] | > 1 | 
C[C@@H]1CCN(C(=O)OCc2ccccc2)C[C@@H]1n1ccc(=O)c2cnc3[nH]ccc3c21 (racemic) [compound 35] | 0.11 | 
C[C@@H]1CCN(Cc2cccc(C(F)(F)F)c2)C[C@@H]1n1ccc(=O)c2cnc3[nH]ccc3c21 (racemic) [compound 39] | 0.18 | 
CCC(C)CN1CCC(n2c(=O)[nH]c(=O)c3cnc4[nH]ccc4c32)CC1 (racemic) [compound 92] |  | IC50 (JAK3; IC50 (μM) JAK3, ATP 100 μM): > 1 µM
CC(C#N)n1c(=O)c2cnc3[nH]ccc3c2n(C2CCCCC2)c1=O (racemic) [compound 146] |  | IC50 (JAK3; IC50 (μM) JAK3, ATP 100 μM): > 1 µM
N#CCC(=O)N(CC(F)(F)F)C[C@H]1CC[C@H](n2c(=O)[nH]c(=O)c3cnc4[nH]ccc4c32)CC1 [Synthetic Example^b 135, 2-Cyano-N-{[trans-4-(2,4-dioxo-2,3,4,7-tetrahydro-1H-pyrrolo[3′,2′:5,6]pyrido[4,3-d]pyrimidin-1-yl)cyclohexyl]methyl}-N-(2,2,2-trifluoroethyl)acetamide] |  | IC50 (JAK3; IC50 (μM) JAK3, ATP 100 μM): 0.5 µM
CN(CC(F)(F)F)C[C@H]1CC[C@H](n2c(=O)[nH]c(=O)c3cnc4[nH]ccc4c32)CC1 [Synthetic Example^b 136, 1-(trans-4-{[Methyl(2,2,2-trifluoroethyl)amino]methyl}cyclohexyl)-1H-pyrrolo[3′,2′:5,6]pyrido[4,3-d]pyrimidine-2,4(3H,7H)-dione] |  | IC50 (JAK3; IC50 (μM) JAK3, ATP 100 μM): 0.75 µM; IC50 (JAK1; IC50 (μM) JAK1, ATP 100 μM): 0.0032 µM
O=c1ccn(C2CCCCC2)c2c1cnc1[nH]ccc12 [compound 3] |  | IC50 (JAK3; [1]): 0.22 µM; IC50 (JAK1; [2]): 0.017 µM
O=c1[nH]c(=O)n(C2CCN(Cc3ccc(C(F)(F)F)cc3)CC2)c2c1cnc1[nH]ccc12 [compound 52] | > 1 | 
O=c1ccn(C2CCN(Cc3ccccc3)CC2)c2c1cnc1[nH]ccc12 [compound 54] | 0.47 | 
O=C1NCc2cnc3[nH]ccc3c2N1C1CCN(Cc2ccc(C(F)(F)F)cc2)CC1 [compound 63] |  | IC50 (JAK1; [3]): 0.12 µM
CO[C@H]1CC[C@H](n2ccc(=O)c3cnc4[nH]ccc4c32)CC1 [compound 70] | > 1 | 
O=c1ccn(C2CCN(Cc3ccc(C(F)(F)F)o3)CC2)c2c1cnc1[nH]ccc12 [compound 71] | 0.46 | 
O=c1ccn(C2CCN(Cc3ccc([N+](=O)[O-])o3)CC2)c2c1cnc1[nH]ccc12 [compound 72] | > 1 | 
O=c1ccn(C2CCN(Cc3ccc(Cl)c(Cl)c3)CC2)c2c1cnc1[nH]ccc12 [compound 75] | > 1 | 
O=c1ccn(C2CCN(Cc3ccc(Br)s3)CC2)c2c1cnc1[nH]ccc12 [compound 81] | 0.031 | 
O=c1ccn(C2CCN(Cc3cnc(Br)s3)CC2)c2c1cnc1[nH]ccc12 [compound 83] | 0.62 | 
O=c1ccn(C2CCN(Cc3ccc4[nH]ccc4c3)CC2)c2c1cnc1[nH]ccc12 [compound 85] | > 1 | 
Cc1nc(CN2CCC(n3ccc(=O)c4cnc5[nH]ccc5c43)CC2)cs1 [compound 86] |  | IC50 (JAK1; [3]): 0.043 µM
O=c1[nH]c(=O)n(C2CCN(CC3CC3)CC2)c2c1cnc1[nH]ccc12 [compound 91] |  | IC50 (JAK3; IC50 (μM) JAK3, ATP 100 μM): > 1 µM
